Reference: US20250057909A1, “NOVEL USE OF ALANYL-GLUTAMINE AND OPHTHALMIC COMPOSITION COMPRISING ALANYL-GLUTAMINE” (SEINDA PHARMACEUTICAL GUANGZHOU CORPORATION, priority 2021, published 2025)
Marks after values point to notes of the source that are not given here.

What was measured:
[1] = system: guinea pig skin; assay: Skin allergy test
[2] = system: corneal cells; assay: Vitro model of corneal ulcer: growth of corneal cells in culture in vitro; type: cell-based, ICR mice; details: cornea of immunised mice co-cultured with autologous leukocytes
Protocol: The rabbit corneas were taken and cut into pieces, 5-10 times volume of 5% triton solution was added and homogenized until there were no lumpy particles, then centrifuged at 3000 r/min for 10 min, and the supernatant was taken. 5 ml of the supernatant was taken and mixed with 5 ml of complete Freund's adjuvant to prepare a mixed solution for later use.
SPF grade ICR mice were divided into normal group, immune group, and cyclophosphamide group, 10 mice/group. The normal group received subcutaneous injection of 0.5 ml of physiological saline per mouse; Each mouse in the immune group and cyclophosphamide group was subcutaneously injected with the mixed solution+physiological saline, the mixed solution+cyclophosphamide 300 mg/kg respectively, and the injection sites were not overlapped; Injection was performed once every other day for a total of 10 times. 3 days after the last injection, the mice were euthanized using the bloodletting method, and the eyeballs were removed and cut into pieces under sterile conditions. At the same time, the cornea and the leukocytes separated from autologous blood were co-cultured in a 24-well culture plate.

[3] = 1 h after challenge and drug removal
[4] = 24 h after challenge and drug removal
[5] = 48 h after challenge and drug removal

Row | SMILES | Average score [1, 3] | Number of allergic animals [1, 3] | Total score [1, 3] | Average score [1, 4] | Number of allergic animals [1, 4] | Total score [1, 4] | Average score [1, 5] | Number of allergic animals [1, 5] | Total score [1, 5] | Growth of corneal cells in culture in vitro, Number ([2]; Grow time 72 h) | Growth of corneal cells in culture in vitro, Percentage % (growth rate) ([2]; Grow time 72 h) | Growth of corneal cells in culture in vitro, Number ([2]; Grow time 120 h) | Growth of corneal cells in culture in vitro, Percentage % (growth rate) ([2]; Grow time 120 h)
1 | O=[N+]([O-])c1ccc(Cl)c([N+](=O)[O-])c1 [2,4-dinitrochlorobenzene] | 2.2 | 10 | 22 | 1.7 | 10 | 17 | 1.0 | 10 | 10 |  |  |  | 
2 | O=P1(N(CCCl)CCCl)NCCCO1 (stereo not shown) [cyclophosphamide] |  |  |  |  |  |  |  |  |  | 8 | 16.0** % | 11 | 22.0** %
